Starred links: 1 amine or outer side, 2 acyl side, 3 side chain; linkers in the order of their positions; H or OH if unused. Non-standard residues stand in square brackets, D forms with d. Residues, ends and D or L forms follow the SMILES beside them. *: point of attachment. NPrTuv(OPr) = CCCO[C@H](C[C@H](C(C)C)N(CCC)[*:1])c1nc(C(=O)[*:2])cs1; Hexanoyl(6-maleimido) = O=C1C=CC(=O)N1CCCCCC(=O)*; X1 = C[C@@H](C[C@H](Cc1ccccc1)N*)C(=O)O; PABC = O=C(OCc1ccc(N[*:1])cc1)[*:2]; NMeI = CC[C@H](C)[C@H](NC)C(=O)O; Cit = NC(=O)NCCC[C@H](N)C(=O)O
What was measured:
Type in all cases: cell-based
HT1080 = assay: cytotoxic activity, IC50 against HT1080 cells; conditions: Homo sapiens, HT-1080
A2780 = assay: cytotoxic activity, IC50 against A2780 cells; conditions: Homo sapiens
HT29 = assay: cytotoxic activity, IC50 against HT29 cells; conditions: Homo sapiens; HT29 / HT-29 cells
NCl-H1299 = assay: cytotoxic activity, IC50 against NCl-H1299 cells
SKBR3 = assay: cytotoxic activity, IC50 against SKBR3 cells; conditions: Homo sapiens, SK-BR-3
BT474 = assay: cytotoxic activity, IC50 against BT474 cells; conditions: Homo sapiens; BT474 / BT-474 cells
MDA-MB-468 = assay: cytotoxic activity, IC50 against MDA-MB-468 cells; conditions: Homo sapiens
SK-N-MC = assay: cytotoxic activity, IC50 against SK-N-MC cells; conditions: Homo sapiens
MCF7 = assay: cytotoxic activity, IC50 against MCF7 cells; conditions: Homo sapiens; MCF7 / MCF-7 cells
HEK293 = assay: cytotoxic activity, IC50 against HEK293 cells; conditions: Homo sapiens
T47D = assay: cytotoxic activity, IC50 against T47D cells; conditions: Homo sapiens; T47D / T-47D cells
[1] = IC50 as ADC with Herceptin and DAR 2; conditions: compound conjugated to Herceptin, DAR 2; cell line not given

| SMILES | IC50 (BT474) | IC50 (MDA-MB-468) | IC50 (SK-N-MC) | IC50 (MCF7) | also measured |
| --- | --- | --- | --- | --- | --- |
| CCCO[C@H](C[C@H](C(C)C)N(CCC)C(=O)[C@@H](NC(=O)[C@H]([C@@H](C)CC)N(C)C(=O)OCc1ccc(NC(=O)[C@H](CCCNC(N)=O)NC(=O)[C@@H](NC(=O)CCCCCN2C(=O)C=CC2=O)C(C)C)cc1)[C@@H](C)CC)c1nc(C(=O)N[C@@H](Cc2ccccc2)C[C@H](C)C(=O)O)cs1 [TAM551] ({Hexanoyl(6-maleimido)}-V[Cit][PABC][NMeI]I[NPrTuv(OPr)]-X1) |  |  |  |  | IC50 (HT1080): 90 nM |
| CC[C@H](C)[C@H](NC(=O)[C@H]1CCCCN1C)C(=O)N(COC(=O)CC(C)C)[C@H](C[C@@H](OC(C)=O)c1nc(C(=O)N[C@@H](Cc2ccc(O)cc2)C[C@H](C)C(=O)NCCS)cs1)C(C)C [TAM674] |  |  |  |  | IC50 (A2780): 8.7 nM; IC50 (HT29): 4.4 nM; IC50 (NCl-H1299): 19 nM |
| CCCO[C@H](C[C@H](C(C)C)N(CCC)C(=O)[C@@H](NC(=O)[C@H]1CCCCN1)[C@@H](C)CC)c1nc(C(=O)N[C@@H](Cc2ccc(O)cc2)C[C@H](C)C(=O)O)cs1 [TAM334] | 5.2 nM |  |  |  | IC50 (SKBR3): 5.4 nM; IC50 (HT29): 12.3 nM |
| CCCO[C@H](C[C@H](C(C)C)N(CCC)C(=O)[C@@H](NC(=O)[C@@H](NC)[C@@H](C)CC)[C@@H](C)CC)c1nc(C(=O)N[C@@H](Cc2ccccc2)C[C@H](C)C(=O)O)cs1 [TAM491] | 1.84 nM | 2.68 nM | 4.57 nM | 1.77 nM |  |
| CCCO[C@H](C[C@H](C(C)C)N(CCC)C(=O)[C@@H](NC(=O)[C@H]1CCCCN1C)[C@@H](C)CC)c1nc(C(=O)N[C@@H](Cc2ccc(O)cc2)C[C@H](C)C(=O)NNC(=O)OCCOCCOCCOCCNC(=O)CCCCCN2C(=O)C=CC2=O)cs1 [TAM552] |  |  |  |  | IC50 (HT1080): 10 nM |
| CCCO[C@H](C[C@H](C(C)C)N(CCO)C(=O)[C@@H](NC(=O)[C@H]1CCCCN1C)[C@@H](C)CC)c1nc(C(=O)N[C@@H](Cc2ccc(O)cc2)C[C@H](C)C(=O)O)cs1 [TAM608] | 1.69 nM | 2.24 nM | 1.54 nM | 4.06 nM |  |
| CCCO[C@H](C[C@H](C(C)C)N(CCC)C(=O)[C@@H](NC(=O)[C@H](NC)[C@@H](C)CC)[C@@H](C)CC)c1nc(C(=O)N[C@@H](Cc2ccc(O)cc2)C[C@H](C)C(=O)O)cs1 [TAM610] | 0.1 nM | 0.3 nM | 0.1 nM | 0.2 nM |  |
| CCCO[C@H](C[C@H](C(C)C)N(CCC)C(=O)[C@@H](NC(=O)[C@H]1CCCCN1C)[C@@H](C)CC)c1nc(C(=O)N[C@@H](Cc2ccc(OC(=O)NCCOCCOCCN)cc2)C[C@H](C)C(=O)O)cs1 [TAM371] |  | 0.13 nM | < 0.01 nM |  | IC50 (HEK293): 0.1 nM |
| CCCO[C@H](C[C@H](C(C)C)N(CCC)C(=O)[C@@H](NC(=O)[C@H]1CCCCN1C)[C@@H](C)CC)c1nc(C(=O)N[C@@H](Cc2ccccc2)C[C@H](C)C(=O)NN)cs1 [TPM320] | 11 nM |  | 16 nM |  |  |
| CCCO[C@H](C[C@H](C(C)C)N(CCC)C(=O)[C@@H](NC(=O)[C@H]1CCCCN1C)[C@@H](C)CC)c1nc(C(=O)N[C@@H](Cc2ccc(O)cc2)C[C@H](C)C(=O)NNC(=O)OCCOCCOCCN)cs1 [TAM375] |  | 25.8 nM |  |  | IC50 (SKBR3): 18.8 nM; IC50 (HEK293): 34.6 nM |
| CCCO[C@H](C[C@H](C(C)C)N(CCC)C(=O)[C@@H](NC(=O)[C@H]1CCCCN1C)[C@@H](C)CC)c1nc(C(=O)N[C@@H](Cc2ccc(O)cc2)C[C@H](C)C(=O)NNC(=O)OCCOCCN=[N+]=[N-])cs1 [TAM426] |  | 1.71 nM |  | 1.33 nM | IC50 (T47D): 2 nM |
| CCCO[C@H](C[C@H](C(C)C)N(CCC)C(=O)[C@@H](NC(=O)[C@H]1CCCCN1C)[C@@H](C)CC)c1nc(C(=O)N[C@@H](Cc2ccccc2)C[C@H](C)C(=O)NNC(=O)OCCOCCN)cs1 [TAM523] | 65 nM | 221 nM | 150 nM | 92.1 nM |  |
| CCCO[C@H](C[C@H](C(C)C)N(CCC)C(=O)[C@@H](NC(=O)[C@H]1CCCCN1C)[C@@H](C)CC)c1nc(C(=O)N[C@@H](Cc2ccc(O)cc2)C[C@H](C)C(=O)NCCOCCOCCOCCOCCOCCOCCN)cs1 [TAM597] |  |  |  |  | IC50 [1]: 0.172 nM |
| CCCO[C@H](C[C@H](C(C)C)N(CCC)C(=O)[C@@H](NC(=O)[C@H]([C@@H](C)CC)N(C)C)[C@@H](C)CC)c1nc(C(=O)N[C@@H](Cc2ccccc2)C[C@H](C)C(=O)O)cs1 [TAM522] | 0.98 nM | 2 nM | 1.54 nM |  |  |
| CCCO[C@H](C[C@H](C(C)C)N(CCC)C(=O)[C@@H](NC(=O)[C@H](CC(C)C)NC)[C@@H](C)CC)c1nc(C(=O)N[C@@H](Cc2ccccc2)C[C@H](C)C(=O)O)cs1 [TAM497] | 50 nM | 85.6 nM | 83.3 nM | 64.3 nM |  |
| CCCO[C@H](C[C@H](C(C)C)N(CCC)C(=O)[C@@H](NC(=O)[C@@H](NC)[C@@H](C)CC)[C@@H](C)CC)c1nc(C(=O)N[C@@H](Cc2ccc(O)cc2)C[C@H](C)C(=O)O)cs1 [TAM599] |  | 0.64 nM | 0.77 nM | 0.65 nM | IC50 (T47D): 1.22 nM |
| CCCO[C@H](C[C@H](C(C)C)N(CCC)C(=O)[C@@H](NC(=O)[C@H](CC(C)C)NC)[C@@H](C)CC)c1nc(C(=O)N[C@@H](Cc2ccccc2)C[C@H](C)C(=O)OC)cs1 [TAM496] | 95.2 nM | 214 nM | 300 nM | 103 nM |  |
| CCCO[C@H](C[C@H](C(C)C)N(CCC)C(=O)[C@@H](NC(=O)[C@H]1CCCCN1C)[C@@H](C)CC)c1nc(C(=O)N[C@@H](Cc2ccc(OCCNC)cc2)C[C@H](C)C(=O)O)cs1 [TAM365] |  | 3.41 nM | 0.92 nM |  | IC50 (HEK293): 0.99 nM |
| CCCO[C@H](C[C@H](C(C)C)N(CCC)C(=O)[C@@H](NC(=O)[C@H]([C@@H](C)CC)N(C)C)[C@@H](C)CC)c1nc(C(=O)N[C@@H](Cc2ccccc2)C[C@H](C)C(=O)OC)cs1 [TAM521] | 4.07 nM | 20 nM | 15.3 nM | 6.74 nM |  |
| CCCO[C@H](C[C@H](C(C)C)N(CCC)C(=O)[C@@H](NC(=O)[C@H](NC)[C@@H](C)CC)[C@@H](C)CC)c1nc(C(=O)N[C@@H](Cc2ccc(O)cc2)C[C@H](C)C(=O)OC)cs1 [TAM609] | 0.5 nM | 3.32 nM | 2.12 nM | 2.17 nM |  |
| CCCO[C@H](C[C@H](C(C)C)N(CCC)C(=O)[C@@H](NC(=O)[C@H]1CCCCN1C)[C@@H](C)CC)c1nc(C(=O)N[C@@H](Cc2ccc(O)cc2)C[C@H](C)C(=O)NNC(=O)OCCOCCN)cs1 [TAM428] |  | 16.8 nM |  | 20.6 nM | IC50 [1]: 0.219 nM; IC50 (T47D): 32 nM |
| CCCO[C@H](C[C@H](C(C)C)N(CCC)C(=O)[C@@H](NC(=O)[C@H]1CCCCN1C)[C@@H](C)CC)c1nc(C(=O)N[C@@H](Cc2ccc(OCCCCN)cc2)C[C@H](C)C(=O)O)cs1 [TAM486] | 50.9 nM | 81.5 nM | 48.5 nM | 57.5 nM | IC50 (T47D): 142 nM |
| CCCO[C@H](C[C@H](C(C)C)N(CCC)C(=O)[C@@H](NC(=O)[C@@H](NC)[C@@H](C)CC)[C@@H](C)CC)c1nc(C(=O)N[C@@H](Cc2ccc(O)cc2)C[C@H](C)C(=O)OC)cs1 [TAM598] |  | 5.15 nM | 6.74 nM | 4.39 nM | IC50 (T47D): 8.17 nM |

Source: US10889616B2, “Cytotoxic tubulysin compounds for conjugation” (priority 2014, dated 2021)
